Experiment [1] deals with Zymosan-induced mechanical pain in mice. Put plainly: Zymosan inflammatory pain, mechanical. In kind it is in vivo, mouse. To be noted: PO; for mechanical pain ratio: vehicle about 3. How it is done:
(§1) An alternative and potentially faster pain model using Zymosin (an inflammatory agent like CFA) to induce inflammatory pain was tested. […] Mice were first acclimated to the pain testing set ups and then subjected to baseline mechanical and thermal pain measurements. Early in the morning the following day, the left hind paws were injected subcutaneously with 30 μL of Zymosan (5 mg/ml in PBS; Z4250, Sigma-Aldrich). Two hours after the Zymosan injection, the left hind paws were assessed for thermal pain using Hargreaves device (2-4 hr), and then left paws tested for mechanical pain using VF filaments (4-6 hr), and then again for thermal pain (6-8 hr). Data from two independent experiments were pooled to increase the n values for the three different genotypes. […] Thermal pain increased in all group following Zymosan injury as indicated by a decreased average response time to the infrared heat source in all animals assessed, and the level of pain intensified from the 2-4 hr testing period to the 6-8 hr period.
(§2) Inflammatory pain was induced by subcutaneous injection of 30 μl of 5 mg/ml Zymosan into the right hind paws of 12 wild-type adult male mice (5-6 months age, 129×1/SvJ background) that in previous days were acclimated to the testing chambers and assessed to obtain baseline pain measurements. After 15 min, mice were orally dosed with either vehicle only (97% PBS/3% DMSO) or with 20, 10, or 5 mg/kg of A20 (2×·HCl salt in vehicle), 3 mice for each condition. Two hours after Zymosan injection, the right hind paws were assessed for thermal pain using Hargreaves device (2-4 hr), then mice were orally dosed again with vehicle only or A20 chemicals, and then right paws tested for mechanical pain using VF filaments (4-6 hr), and then again for thermal pain (6-8 hr).
(§3) Inflammatory pain was induced by subcutaneous injection of 30 μl of 5 mg/ml Zymosan into the left hind paws of 9 wild-type adult males (5-6 months age, 129/CD1 mixed background) that in previous days were acclimated to the testing chambers and assessed to obtain baseline pain measurements. After 15 min, mice were orally dosed with either vehicle only (97% PBS/3% DMSO) or with 20 mg/kg of 3511-I (2×·HCl salt in vehicle), or 20 mg/kg BQPB4 (3×·HCl salt in 97% sunflower seed oil/3% DMSO), 3 mice for each condition. Two hours after Zymosan injection, the left […] hind paws were assessed for mechanical pain using VF filaments (2-4 hr), then mice were orally dosed again with vehicle only or A20 chemicals, and then left hind paws tested for thermal pain using Hargreaves device (4-6 hr), and then again for mechanical pain (6-8 hr).

Experiment [2] concerns Zymosan-induced thermal pain in mice. The experiment in a line: Zymosan inflammatory pain, thermal. To be noted: PO; for thermal pain ratio: A20 experiment vehicle close to 6. It is filed as in vivo, mouse. How it is done: as §1, §2, §3
Inflammatory pain was induced by subcutaneous injection of Zymosan into left hind paws, followed 15 min later with an oral dose of either vehicle or 20, 10, or 5 mg/kg of BQPB4 (3×·HCl salt in 97% sunflower seed oil/3% DMSO). Two hours after Zymosan injection, the left hind paws were assessed for mechanical pain using VF filaments (2-4 hr), then mice were orally dosed again with vehicle or BQPB4 chemical, and then hind paws tested for thermal pain using Hargreaves device (4-6 hr), and then tested again for mechanical pain (6-8 hr). […] Calculation of pain ratios confirmed the significant dose-dependent effects of BQPB4 at blunting thermal pain (FIG. 92B).

The target of experiment [3] is T1, EphB2-EphrinB2 (Mus musculus, UniProt P54763).
T1 construct: Whole brain protein lysates were then prepared in a Dounce homogenizer; from tissue; host or cells: brain of wild-type mice
T1 sequence (P54763 19-986): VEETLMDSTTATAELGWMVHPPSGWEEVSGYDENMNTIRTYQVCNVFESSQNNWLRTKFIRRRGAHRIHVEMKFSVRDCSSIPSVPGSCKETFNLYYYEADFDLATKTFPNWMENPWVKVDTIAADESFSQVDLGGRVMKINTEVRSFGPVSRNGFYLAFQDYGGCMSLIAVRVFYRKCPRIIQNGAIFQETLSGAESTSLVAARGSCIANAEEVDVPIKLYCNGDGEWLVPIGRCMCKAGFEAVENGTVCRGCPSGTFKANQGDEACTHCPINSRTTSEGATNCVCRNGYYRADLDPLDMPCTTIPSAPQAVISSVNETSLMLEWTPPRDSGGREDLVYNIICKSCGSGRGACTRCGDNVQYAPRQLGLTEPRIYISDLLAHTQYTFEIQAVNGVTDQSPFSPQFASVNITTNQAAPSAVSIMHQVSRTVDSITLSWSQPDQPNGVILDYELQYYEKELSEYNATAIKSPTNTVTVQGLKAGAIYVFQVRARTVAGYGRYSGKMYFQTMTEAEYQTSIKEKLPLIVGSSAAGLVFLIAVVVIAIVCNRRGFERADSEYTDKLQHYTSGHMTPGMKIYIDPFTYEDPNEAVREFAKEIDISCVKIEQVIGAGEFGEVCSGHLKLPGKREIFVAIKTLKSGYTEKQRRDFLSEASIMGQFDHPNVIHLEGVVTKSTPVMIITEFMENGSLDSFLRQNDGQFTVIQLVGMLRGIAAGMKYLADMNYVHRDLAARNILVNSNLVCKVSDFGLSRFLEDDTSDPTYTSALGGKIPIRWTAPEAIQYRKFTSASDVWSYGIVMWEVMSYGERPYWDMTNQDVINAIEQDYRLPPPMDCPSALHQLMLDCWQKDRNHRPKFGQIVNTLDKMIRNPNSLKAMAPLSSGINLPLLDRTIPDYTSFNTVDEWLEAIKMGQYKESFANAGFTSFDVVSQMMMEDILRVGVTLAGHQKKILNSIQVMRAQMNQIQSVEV
The experiment in a line: EphrinB2 co-immunoprecipitation with EphB2 in mouse brain after dosing. In kind it is in vivo. Particulars: IP 10 mg/kg every 12 hr, 4 days. How it is done: Wild-type mice aged 10-12 weeks were IP injected every 12 hr for four days with vehicle (PBS) or 10 mg/kg of 2×·HCl salt forms of A20 (in PBS), A20-I (in PBS), or 3511-I, in 94% PBS/6% DMSO) for a total of 8 injections. Exactly 2 hr after final injection of A20 chemical, brains were dissected and frozen at −80 °C. Whole brain protein lysates were then prepared in a Dounce homogenizer using 5 ml PLC lysis buffer, and 1 ml of lysate was used for immunoprecipitation (IP) with 1 μg goat anti-EphB2 antibody, followed by immunoblot (IB) analysis with goat anti-EphB2, rabbit anti-phosphoEphB1/B2 (pEphB1/B2), and mouse anti-EphrinB2 antibodies using appropriate HRP conjugated secondary antibodies and chemiluminescent detection methods.
FIG. 79A depicts an illustrative immunoblot showing expression of EphB2, phospho-EphB1/B2, and EphrinB2 (co-IP) in the mouse brains. […] The level of co-immunoprecipitated EphrinB2 from the brains of A20 chemical injected animals was generally lower as indicated by fainter bands. FIGS. 79B and 79C show quantification of band intensities (number of photons detected) to obtain ratios of pEphB/EphB2 as a measure of EphB2 receptor activation levels (FIG. 79B) and ratios of EphrinB2/EphB2 as a measure of how much EphrinB2 is co-immunoprecipitated with the EphB2 receptor (FIG. 79C).

“Also recorded” adds a separate entry of the source.

As for `Oc1c(Br)cc(CN2CCOCC2)c2cccnc12` [Compound 5, 7-bromo-5-(morpholinomethyl)quinolin-8-ol], in experiment [1], the “mechanical pain” value is “significant reductions in both mechanical and thermal pain”; the mechanical pain ratio is given as ~1. Further, in experiment [2], the “thermal pain” value was “significant reductions in both mechanical and thermal pain”; the thermal pain ratio result was “around 3”. Moreover, in experiment [3], the “association of EphrinB2 with EphB2 in brain” value (“association of EphrinB2” below) is listed as “reduced level of association with EphrinB2”.
`Oc1c(I)cc(CN2CCOCC2)c2cccnc12` [Compound 7, 7-iodo-5-(morpholinomethyl)quinolin-8-ol]: the “association of EphrinB2” value in experiment [3] is “reduced level of association with EphrinB2”.
For the molecule `Oc1c(Br)cc(CN2CCN(c3ccc(Br)cc3)CC2)c2cccnc12` [Compound 28, 7-bromo-5-((4-(4-bromophenyl)piperazin-1-yl)methyl)quinolin-8-ol], in experiment [1], the “mechanical pain” value is on record as “essentially no enhanced mechanical pain sensitivity” and the mechanical pain ratio is listed as ~1. Besides, in experiment [2], the thermal pain ratio result is on record as “below 2”. For the same molecule, in experiment [2] (listed as BQPB4), the “thermal pain” value was “significantly less thermal pain; also recorded: the 20 mg/kg dose produced the strongest and most significant reduction in pain, followed by the 10 mg/kg dose, and then the 5 mg/kg dose”.
Consider `COc1ccccc1N1CCN(Cc2cc(I)c(O)c3ncccc23)CC1` [Compound 71, 7-iodo-5-((4-(2-methoxyphenyl)piperazin-1-yl)methyl)quinolin-8-ol], for which the “mechanical pain” value in experiment [1] is recorded as “somewhat blunted mechanical pain response”. Besides, in experiment [2], the “thermal pain” value is “significantly less thermal pain” and the thermal pain ratio is recorded as ~3. Also, the “association of EphrinB2” value in experiment [3] is “reduced level of association with EphrinB2”.

For the origin of these results see patent publication US20260374739A1, “SMALL MOLECULAR WEIGHT CHEMICAL COMPOUND TO ANTAGONIZE EPH-EPHRIN TETRAMERIZATION AND INHIBIT BIDIRECTIONAL SIGNALING” (THE BOARD OF REGENTS OF THE UNIVERSITY OF TEXAS SYSTEM, priority 2022, published 2026).
